Data taken from patent publication US3954733A, “Naphthyridine-3-carboxamido-benzylpenicillins and salts thereof” (Sumitomo Chemical Company, Limited, priority 1973, dated 1976).
≈ marks a conversion by molar mass, not a printed value.

Columns and labels:
[1] = system: gram-positive and gram-negative bacteria; settings: known penicillins and N-acyl ampicillins; cited from earlier work
[2] = system: Pseudomonas; settings: known penicillins and N-acyl ampicillins; cited from earlier work
[3] = system: Proteus miravilis GN2425; assay: minimal inhibitory concentration, agar dilution method; assay type: cell-based
[4] = system: Escherichia coli NIHJ; assay: as above; assay type: cell-based
Source text: (§1) When determined according to the agar dilution method, the penicillins (I) afford the minimal inhibitory concentrations against test microorganisms as shown in Table 2.

[5] = system: Staphylococcus aureus 209P; assay: as above; assay type: cell-based
Source text: as §1

[6] = system: Klebsiella pneumoniae PCI602; assay: as above; assay type: cell-based
Source text: as §1

[7] = system: Pseudomonas aeruginosa 104; assay: as above; assay type: cell-based
Source text: as §1

[8] = system: Proteus vulgaris HV19; assay: as above; assay type: cell-based

Row | Molecule | MIC [3] | MIC [4] | MIC [5] | MIC [7] | MIC [8] | growth inhibition / antimicrobial activity against gram-positive and gram-negative bacteria [1] | antimicrobial activity against Pseudomonas [2] | MIC [6]
1 | CC1(C)S[C@@H]2[C@H](NC(=O)C3(N)CCCCC3)C(=O)N2[C@H]1C(=O)O [Cyclacillin, 6-(1-amino-cyclohexane)carboxamidopenicillanic acid] | – | – | – | – | – | inhibit the growth of various gram-positive and gram-negative bacteria | do not exert any appreciable antimicrobial activity against Pseudomonas | –
2 | 6-(α-amino-thienylacetamido)penicillanic acid | – | – | – | – | – | inhibit the growth of various gram-positive and gram-negative bacteria | do not exert any appreciable antimicrobial activity against Pseudomonas | –
3 | 6-(α-amino-isothiazolylacetamido)penicillanic acid | – | – | – | – | – | inhibit the growth of various gram-positive and gram-negative bacteria | do not exert any appreciable antimicrobial activity against Pseudomonas | –
4 | CC1(C)S[C@@H]2[C@H](NC(=O)[C@H](N)C3=CCC=CC3)C(=O)N2[C@H]1C(=O)O [Epicillin, 6-[α-amino-2-(1,4-hexadienylacetamido)]penicillanic acid] | – | – | – | – | – | inhibit the growth of various gram-positive and gram-negative bacteria | do not exert any appreciable antimicrobial activity against Pseudomonas | –
5 | CC1(C)S[C@@H]2[C@H](NC(=O)C(NC(=O)c3ccccn3)c3ccccc3)C(=O)N2[C@H]1C(=O)O (some centres unmarked) [R, reference compound] | 50 µg/mL (≈ 110 µM) | 100 µg/mL (≈ 220 µM) | 0.78 µg/mL (≈ 1.72 µM) | 50 µg/mL (≈ 110 µM) | – | – | – | 50 µg/mL (≈ 110 µM)
6 | CC1(C)S[C@@H]2C(NC(=O)C(N)c3ccccc3)C(=O)N2[C@H]1C(=O)O (stereo partly drawn) [Ampicillin, 6-(α-amino-phenylacetamido)penicillanic acid, reference compound] | – | 6.26 µg/mL (≈ 17.9 µM) | 0.1 µg/mL (≈ 0.286 µM) | – | – | inhibit the growth of various gram-positive and gram-negative bacteria | – | –
7 | Cc1nc(C)c2c(O)c(C(=O)N[C@@H](C(=O)N[C@@H]3C(=O)N4[C@@H]3SC(C)(C)[C@@H]4C(=O)O)c3ccc(O)cc3)cnc2n1 [Example 31] | 3.13 µg/mL (≈ 5.52 µM) | 3.13 µg/mL (≈ 5.52 µM) | 0.78 µg/mL (≈ 1.38 µM) | 3.13 µg/mL (≈ 5.52 µM) | 0.1 µg/mL (≈ 0.176 µM) | – | – | –
8 | CC1(C)S[C@@H]2[C@H](NC(=O)C(NC(=O)c3cnc4cccnc4c3S)c3cc(Cl)c(O)c(Cl)c3)C(=O)N2[C@H]1C(=O)O (some centres unmarked) [Example 40] | 6.25 µg/mL (≈ 10 µM) | 12.5 µg/mL (≈ 20.1 µM) | 1.56 µg/mL (≈ 2.51 µM) | 6.25 µg/mL (≈ 10 µM) | 0.2 µg/mL (≈ 0.321 µM) | – | – | –
9 | CC1(C)S[C@@H]2C(NC(=O)C(N)c3ccc(O)cc3)C(=O)N2[C@H]1C(=O)O (stereo partly drawn) [Amoxycillin, 6-(α-amino-p-hydroxyphenylacetamido)penicillanic acid, reference compound] | 3.13 µg/mL (≈ 8.57 µM) | 12.5 µg/mL (≈ 34.2 µM) | 0.2 µg/mL (≈ 0.547 µM) | > 200 µg/mL | 12.5 µg/mL (≈ 34.2 µM) | inhibit the growth of various gram-positive and gram-negative bacteria | do not exert any appreciable antimicrobial activity against Pseudomonas | –

Further lines, with some results ahead:

Row | MIC [3] | MIC [4] | MIC [5] | MIC [7] | MIC [8] | Molecule | growth inhibition / antimicrobial activity against gram-positive and gram-negative bacteria [1] | antimicrobial activity against Pseudomonas [2] | MIC [6]
10 | 6.25 µg/mL | 6.25 µg/mL | 0.78 µg/mL | 6.25 µg/mL | 0.2 µg/mL | CC1(C)S[C@@H]2[C@H](NC(=O)C(NC(=O)c3cnc4ccccc4c3O)c3ccc(O)cc3)C(=O)N2[C@H]1C(=O)O (mixture of isomers) [Example 6, DL-α-(4-hydroxyquinoline-3-carboxamido)-p-hydroxybenzylpenicillin] | – | – | –
11 | 1.56 µg/mL (≈ 2.49 µM) | 1.56 µg/mL (≈ 2.49 µM) | 0.78 µg/mL (≈ 1.25 µM) | 1.56 µg/mL (≈ 2.49 µM) | 0.05 µg/mL (≈ 0.0799 µM) | CCOC(=O)Oc1ccc([C@@H](NC(=O)c2cnc3cccnc3c2S)C(=O)N[C@@H]2C(=O)N3[C@@H]2SC(C)(C)[C@@H]3C(=O)O)cc1 [Example 39] | – | – | –
12 | 1.56 µg/mL (≈ 2.38 µM) | 1.56 µg/mL (≈ 2.38 µM) | 0.78 µg/mL (≈ 1.19 µM) | 1.56 µg/mL (≈ 2.38 µM) | 0.1 µg/mL (≈ 0.153 µM) | CCOC(=O)Oc1ccc([C@@H](NC(=O)c2cnc3ccc(SC)nc3c2O)C(=O)N[C@@H]2C(=O)N3[C@@H]2SC(C)(C)[C@@H]3C(=O)O)cc1 [Example 17] | – | – | –
13 | 3.13 µg/mL (≈ 5.51 µM) | 3.13 µg/mL (≈ 5.51 µM) | 0.78 µg/mL (≈ 1.37 µM) | 3.13 µg/mL (≈ 5.51 µM) | 0.05 µg/mL (≈ 0.0881 µM) | COc1ccc2ncc(C(=O)N[C@@H](C(=O)N[C@@H]3C(=O)N4[C@@H]3SC(C)(C)[C@@H]4C(=O)O)c3ccc(O)cc3)c(O)c2n1 [Example 19] | – | – | –
14 | 3.13 µg/mL (≈ 5.13 µM) | 3.13 µg/mL (≈ 5.13 µM) | 1.56 µg/mL (≈ 2.56 µM) | 3.13 µg/mL (≈ 5.13 µM) | 0.05 µg/mL (≈ 0.082 µM) | CCOC(=O)Oc1ccc([C@@H](NC(=O)c2cnc3cccnc3c2O)C(=O)N[C@@H]2C(=O)N3[C@@H]2SC(C)(C)[C@@H]3C(=O)O)cc1 [Example 9, D-α-(4-hydroxy-1,5-naphthyridine-3-carboxamido)-p-ethoxycarbonyloxybenzylpenicillin] | – | – | –
15 | 6.25 µg/mL (≈ 10 µM) | 3.13 µg/mL (≈ 5.02 µM) | 1.56 µg/mL (≈ 2.5 µM) | 3.13 µg/mL (≈ 5.02 µM) | 0.1 µg/mL (≈ 0.16 µM) | CCOC(=O)Oc1ccc([C@@H](NC(=O)c2cnc3nc(C)ccc3c2O)C(=O)N[C@@H]2C(=O)N3[C@@H]2SC(C)(C)[C@@H]3C(=O)O)cc1 [Example 15] | – | – | –
16 | 3.13 µg/mL (≈ 4.69 µM) | 3.13 µg/mL (≈ 4.69 µM) | 1.56 µg/mL (≈ 2.34 µM) | 3.13 µg/mL (≈ 4.69 µM) | 0.2 µg/mL (≈ 0.3 µM) | CCOC(=O)Oc1ccc([C@@H](NC(=O)c2cnc3ccc(NC(C)=O)nc3c2O)C(=O)N[C@@H]2C(=O)N3[C@@H]2SC(C)(C)[C@@H]3C(=O)O)cc1 [Example 23] | – | – | –
